No end group written: not given here.
What was measured:
MLK3 SH3 domain = assay: analytical size-exclusion chromatography of MLK3 SH3-MIP fusion proteins (oligomeric state); format: binding, human; details: Superdex 200 10/300 GL, 25 mM Tris-HCl, pH 7.4, 500 mM NaCl; for effect of mutation on binding to MLK3 SH3 (fusion proteins, gel filtration): 750 μg/200 μl (Fig. S4); for oligomeric state by size-exclusion chromatography: MIP(1–19) fusion 2 mg/200 μl, MIP(1–13) fusions 750 μg/200 μl
Source text: Two DNA fragments encoding the SH3 domain of MLK3 (UniProt entry Q16584), MLK3 SH3(41–105) and MLK3 SH3(44–103), and four fragments encoding SH3 domain-MIP fusions, MLK3 SH3(41–105)-MIP(1–19), MLK3 SH3(41–105)-MIP(1–13), MLK3 SH3(41–105)-MIP(1–13)W10A, and MLK3 SH3(41–105)-MIP(1–13)R12A, were commercially prepared as gBlocks Gene Fragments. One fragment encoding SH3 domain fused to an NS5A (UniProt entry A0A076MER2) peptide, MLK3 SH3(41–105)-NS5A(2325–2332), was created by amplifying MLK3 SH3(41–105) with T7 promoter primer and a reverse primer (see Table S1). The subsequent insert contained MLK3 SH3(41–105) with the NS5A fragment (aa 2325–2332) at the C terminus. All coding regions were codon-optimized for E. coli expression. DNA fragments were cleaved with NdeI and BamHI-HF (New England Biolabs) and subsequently ligated into a modified version of the pET14b expression vector where the N-terminal His6 tag is followed by a SUMO protease cleavage site. The resulting DNA constructs (verified by sequencing) were transformed into E. coli strain BL21 C41(DE3). Cells were grown at 37 °C in 2× YT medium, which was supplemented with either 50 μg/ml CB or 100 μg/ml ampicillin, protein expression was induced with 0.1–0.3 mM IPTG at an A600 nm of 0.6–0.7, and cells were cultured overnight at 22 °C. Cells were harvested by centrifugation; washed with 200 mM KCl, 50 mM Tris, pH 7.4; and lysed by sonication in 25 mM Tris, pH 7.4, 200 mM KCl, 10 mM MgCl2, 10% glycerol, 1% Triton X-100, 1 mM phenylmethylsulfonyl fluoride (PMSF). Clarified supernatant was loaded onto a 5-ml HisTrap^TM HP Ni-Sepharose column (GE Healthcare), and the column was washed with 25 mM Tris, pH 7.4, 500 mM NaCl supplemented with 10 and 25 mM imidazole. Protein was eluted in the same buffer, which was supplemented with 250 and 500 mM imidazole, and the fractions were pooled together. The His6-SUMO tag was cleaved with SUMO protease while dialyzing against 25 mM Tris, pH 7.4, 500 mM NaCl, 10 mM imidazole, and the tag was removed by loading the sample back onto a nickel column. Collected fractions containing purified protein were concentrated and injected onto an S-200 size-exclusion column (GE Healthcare) equilibrated with 25 mM Tris-HCl, pH 7.4, 500 mM NaCl. To confirm the purity, collected samples were analyzed by SDS-PAGE and detected with Coomassie Brilliant Blue staining. All purified proteins were concentrated and stored at −80 °C.
To determine oligomeric state of several MLK3 SH3 fusion proteins, samples were injected into a Superdex 200 10/300 GL size-exclusion chromatography column (GE Healthcare) in two independent experiments. Two samples, MLK3 SH3(41–105)-MIP(1–19) and MLK3 SH3(41–105), at 2 mg of protein/200-μl injection, were analyzed in the first experiment (Fig. S3). Three additional samples of MLK3 SH3 domain-MIP fusion proteins were analyzed in a second experiment by injecting 750 μg of protein in 200 μl: MLK3 SH3(41–105)-MIP(1–13), MLK3 SH3(41–105)-MIP(1–13)W10A, and MLK3 SH3(41–105)-MIP(1–13)R12A (Fig. S4). Prior to the injections, the column was equilibrated with 25 mM Tris-HCl, pH 7.4, 500 mM NaCl.
Figure S3. Comparison of apo vs peptide-bound MLK3 SH3. Gel filtration chromatography of MLK3 SH3 and MLK3 SH3-MIP(1-19) fusion using Superdex 200 10/300 GL. Both constructs were expressed and purified as His6-SUMO fusions and the tag cleaved with SUMO protease. […] PS corresponds to MW standards (kDa).
Figure S4. W10 and R12 in MIP are critical for intermolecular interaction with MLK3 SH3 in vitro. Three fusion proteins composed of MLK3 SH3(41-105) domain linked via its C-terminus to one of the MIP variant: MIP(1-13) (Blue), MIP(1-13)W10A (Red), or MIP(1-13)R12A (Green), and have been analyzed using gel filtration chromatography. Corresponding sequences of MIP variants are: […] (Blue), […] (Red), and […] (Green). […] The chromatogram corresponding to MLK3 SH3 (Orange) was scaled down by approximately 33%. […]

GST-MLK3 SH3 [1] = assay: phage ELISA of phage-displayed MIP and variants on GST-MLK3 SH3; format: binding, human; details: original clone/MIP, anti-M13 mAb-HRP detection, experiments in duplicate, averaged
Protocol: Figure 1. […] The presence of virions in the supernatant was determined by coating the wells of the microtiter plate with an anti-M13 mAb (anti-M13 Ab). Virions, which were retained in the microtiter plate wells, were detected with anti-M13 mAb conjugated to HRP. […] See also Fig. S1.
Figure 2. […] The MIP sequence, NH2-[…]-COOH, was fused to the N terminus of the pIII capsid protein of bacteriophage M13 ([51]) to facilitate type 3 pentavalent display. Systematic alanine replacements in the peptide were generated by Kunkel mutagenesis ([11]); Ala-1 and Ala-14 were replaced with Val. […] The signal for binding of MIP (WT) to GST-MLK3 SH3 is set as 100%, and other values are normalized to it. […] See also Fig. S2.
Screens for peptide ligands were performed following a protocol published previously ([11]). […] After three rounds of affinity selection, individual phage clones were isolated, and their binding was evaluated via phage ELISA ([11]). […]
All constructs were generated via Kunkel mutagenesis ([11], [57], [58]) and facilitated type 3 (pentavalent) display. […] All constructs were verified by DNA sequencing, and phage clones were evaluated for their binding to the target (GST-MLK3 SH3) via phage ELISA ([11]). […]

GST-MLK2 SH3 = assay: specificity ELISA, MLK2; format: binding, human; details: biotinylated peptide ≈2 μM on NeutrAvidin; GST-SH3 0.15 μM, 1–1.5 h; anti-GST-HRP; triplicate (Fig. 8)
Protocol: (§1) Figure 8. Binding of MIP and NS5A peptides to SH3 domain of other members of MLK subfamily (MLK1–4). To determine whether MIP and NS5A can interact with SH3 domains of MLK1–4 proteins, the purified GST-MLK1–4 SH3 domains were incubated with biotinylated peptides, NS5A peptide ([…]-GGG-K-biotin), MIP ([…]-K-biotin), and MIP-R12A ([…]-K-biotin), immobilized on a NeutrAvidin-coated 96-well ELISA plate. Binding of SH3 domain was detected with anti-GST antibody conjugated to HRP. […] See also Fig. S6.
(§2) Two plasmids, gifts from Dr. Gerardo Morfini, University of Illinois at Chicago, encoding a GST protein fused to either the WT or mutant Y52A of the SH3 domain of MLK3 (UniProt entry Q16584; aa 43–104), respectively, between BamHI and EcoRI sites, were transformed into the Escherichia coli strain Rosetta(DE3)pLysS. DNA fragments encoding the SH3 domain of MLK1 (UniProt entry P80192; aa 52–116), MLK2 (UniProt entry Q02779; aa 16–81), and MLK4 (UniProt entry Q5TCX8; aa 38–102) were commercially prepared as gBlocks® Gene Fragments (Integrated DNA Technologies, Inc.). All coding regions were codon-optimized for E. coli expression. DNA fragments were cleaved with BamHI-HF® and EcoRI-HF® (New England Biolabs) and subsequently ligated into pGex-2T vector. […]

GST-MLK4 SH3 [2] = assay: specificity ELISA, MLK4; format: binding, human; details: biotinylated peptide ≈2 μM on NeutrAvidin; GST-SH3 0.15 μM, 1–1.5 h; anti-GST-HRP; triplicate (Fig. 8)
Protocol: as §1, §2

GST-MLK1 SH3 [3] = assay: specificity ELISA, MLK1; format: binding, human; details: biotinylated peptide ≈2 μM on NeutrAvidin; GST-SH3 0.15 μM, 1–1.5 h; anti-GST-HRP; triplicate (Fig. 8)
Protocol: as §1, §2

GST-MLK3 SH3 [4] = assay: specificity ELISA, MLK3; format: binding, human; details: biotinylated peptide ≈2 μM on NeutrAvidin; GST-SH3 0.15 μM, 1–1.5 h; anti-GST-HRP; triplicate (Fig. 8)
Protocol: as §1, §2

MLK3 SH3 domain Y52A = assay: binding to Y52A mutant of MLK3 SH3; parameters: species or system human; details: data not shown
Source text: Two plasmids, gifts from Dr. Gerardo Morfini, University of Illinois at Chicago, encoding a GST protein fused to either the WT or mutant Y52A of the SH3 domain of MLK3 (UniProt entry Q16584; aa 43–104), respectively, between BamHI and EcoRI sites, were transformed into the Escherichia coli strain Rosetta(DE3)pLysS. DNA fragments encoding the SH3 domain of MLK1 (UniProt entry P80192; aa 52–116), MLK2 (UniProt entry Q02779; aa 16–81), and MLK4 (UniProt entry Q5TCX8; aa 38–102) were commercially prepared as gBlocks® Gene Fragments (Integrated DNA Technologies, Inc.). All coding regions were codon-optimized for E. coli expression. DNA fragments were cleaved with BamHI-HF® and EcoRI-HF® (New England Biolabs) and subsequently ligated into pGex-2T vector. The resulting DNA constructs, pGex-MLK1 SH3, pGex-MLK2 SH3, and pGex-MLK4 SH3 (verified by sequencing) were transformed into E. coli strain BL21(DE3).

GST-MLK1 SH3 [5] = biological target: T1, GST-MLK1 SH3 (UniProt P80192 52-116); assay: ELISA; details: both partners purified
T1 construct: also called SH3 domain of MLK1
T1 sequence (looked up): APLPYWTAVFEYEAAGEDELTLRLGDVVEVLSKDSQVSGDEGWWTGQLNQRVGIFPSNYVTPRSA

GST-MLK3 SH3(43–104) = biological target: T2, GST-MLK3 SH3(43–104) (human, UniProt Q16584 43-104); assay: ELISA; details: both partners purified
T2 construct: also called GST-MLK3 SH3-WT; SH3 WT
T2 sequence (looked up): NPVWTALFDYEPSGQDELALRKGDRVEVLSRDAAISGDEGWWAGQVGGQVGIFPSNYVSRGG

GST-MLK4 SH3 [6] = biological target: T3, GST-MLK4 SH3 (UniProt Q5TCX8 38-102); assay: ELISA; details: both partners purified
T3 construct: also called SH3 domain of MLK4
T3 sequence (looked up): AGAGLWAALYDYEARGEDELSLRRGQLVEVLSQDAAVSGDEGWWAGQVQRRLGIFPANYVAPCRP

AIRINPNGTASRQ [MIP(1–13)W10A, SH3 domain linked via its C terminus to MIP(1–13)W10A]
effect of mutation on binding to MLK3 SH3 (fusion proteins, gel filtration) (MLK3 SH3 domain): loss of binding to MLK3 SH3 | oligomeric state by size-exclusion chromatography (MLK3 SH3 domain): elute at a volume corresponding to the size of a monomeric fusion protein | oligomeric state by size-exclusion chromatography (MLK3 SH3 domain; listed as MIP(1-13)W10A): elute at fraction corresponding to the size of a monomeric fusion protein

AIRINPNGTWSAQ [MIP(1–13)R12A, SH3 domain linked via its C terminus to MIP(1–13)R12A]
effect of mutation on binding to MLK3 SH3 (fusion proteins, gel filtration) (MLK3 SH3 domain): loss of binding to MLK3 SH3 | oligomeric state by size-exclusion chromatography (MLK3 SH3 domain): elute at a volume corresponding to the size of a monomeric fusion protein | oligomeric state by size-exclusion chromatography (MLK3 SH3 domain; listed as MIP(1-13)R12A): elute at fraction corresponding to the size of a monomeric fusion protein

AIRINPNGTWSRQ [MLK3 SH3(41–105)-MIP(1–13), SH3 domain linked via its C terminus to truncated WT ligand]
oligomeric state by size-exclusion chromatography (MLK3 SH3 domain): eluted as a higher order oligomer

H-IRINPNGTWSRQ-OH [single clone displaying a 12-mer peptide from ANL7 library]
binding to GST-MLK3 SH3 in phage ELISA (GST-MLK3 SH3 [1]): bound to the wildtype (WT) form of the MLK3 SH3 domain

KKAPTPPPRRRRGGGK [NS5A peptide, reference compound]
binding to MLK2 SH3 (GST-MLK2 SH3): could bind | binding to MLK4 SH3 (GST-MLK4 SH3 [2]): could bind | binding to MLK1 SH3 (GST-MLK1 SH3 [3]): could bind | binding to MLK3 SH3 (GST-MLK3 SH3 [4]): could bind | effect of SH3 mutation Y52A on peptide binding (MLK3 SH3 domain Y52A): disrupts binding

B1: biotinylated MIP (AIRINPNGTWSRQAETVES-K-biotin) (peptide)
peptide: AIRINPNGTWSRQAETVESK
modifications: biotin on the added C-terminal K
notes: also called immobilized MIP; biotinylated MIP peptide; source: synthetic peptide
binding result (GST-MLK1 SH3 [5]): binds | binding result (GST-MLK3 SH3(43–104)): binds | binding result (GST-MLK4 SH3 [6]): binds

— article PMC6120190, “Identification of two distinct peptide-binding pockets in the SH3 domain of human mixed-lineage kinase 3” (The Journal of Biological Chemistry, 2018)
